From patent publication EP4600258A1, “KERATIN YK93-6, PREPARATION METHOD THEREFOR, PHARMACEUTICAL COMPOSITION THEREOF, AND USE THEREOF” (INSTITUTE OF MATERIA MEDICA, CHINESE ACADEMY OF MEDICAL …, priority 2022, dated 2024)
Structures can show the parent of a compound that is named as a salt.

Experiments:
[1] = tested on: EL-4 lymphoma; conditions: single time
Method: Subcutaneous inoculation of EL-4 cell suspension to replicate a mouse lymphoma model: The EL-4 tumor tissue was ground into a suspension using a glass homogenizer, the tumor suspension was aspirated with a syringe, the number of live cells was calculated, the cell concentration was adjusted to 2.0*10^6/ml with physiological saline, and then the suspension was injected into the left armpit of mice with 0.2 ml/mouse. […] On the day of treatment, weight was measured, 20µl of blood was obtained from the orbital blood and the routine blood analysis was performed.
The data from the groups were compared with each other by T.TEST, and P<0.05 was considered as a significant difference.

[2] = tested on: mouse pain model; experiment: Pharmacodynamic test on mouse pain model (acetic acid-induced writhing); type: in vivo, Male Kunming mice; conditions: dose 50mg/kg; writhing within 15 minutes after 1% acetic acid intraperitoneally
[3] = 100 mg/kg intraperitoneal, blood routine test, P<0.05

Row | Compound | leukocytes [1, 3] | lymphocytes [1, 3] | monocytes [1, 3] | neutrophils [1, 3] | Tumor weight ([1]; dose 0.1 g/kg, intraperitoneal) | Number of writhing [2]
1 | O=P1(N(CCCl)CCCl)NCCCO1 (stereo not drawn) [cyclophosphamide, Cyclophosphamide] | significantly reduced | significantly reduced | significantly reduced | significantly reduced | 0.12 ± 0.03 g | –
2 | COc1cccc(C2(O)CCCCC2CN(C)C)c1 (stereo not drawn) [Tramadol Hydrochloride] | – | – | – | – | – | 0.375±0.74
